In ChEMBL document CHEMBL1909590, “Design, synthesis and docking studies of new quinoline-3-carbohydrazide derivatives as antitubercular agents” (2011):
≈ marks a conversion by molar mass, not a printed value.

tested on: Mycobacterium tuberculosis; test: Antimycobacterial activity against isoniazid, rifampicin and ethambuto-resistant Mycobacterium tuberculosis using compound level ranging from 0.3125 to 5 ug/mL after 7 days by resazurin reduction test; type: functional; conditions: 168 h

`Cc1[nH]cnc1/C=N/NC(=O)c1cnc2c(C(F)(F)F)cccc2c1O` and `O=C(N/N=C/c1cnc[nH]1)c1cnc2c(C(F)(F)F)cccc2c1O` cannot be ordered by MIC: > 50 mg/L for the first, > 50 mg/L for the second.

`COc1ccc2[nH]cc(/C=N/NC(=O)c3cnc4c(C(F)(F)F)cccc4c3O)c2c1` and `COc1ccc(/C=N/NC(=O)c2cnc3c(C(F)(F)F)cccc3c2O)c(F)c1` are the same in MIC: 6.25 mg/L (≈ 14.6 µM) for the first, 6.25 mg/L (≈ 15.3 µM) for the second.

`COC(=O)Cc1cc(/C=N/NC(=O)c2cnc3c(C(F)(F)F)cccc3c2O)co1` and `COc1ccc(/C=N/NC(=O)c2cnc3c(C(F)(F)F)cccc3c2O)cc1O` cannot be ordered by MIC: > 50 mg/L for the first, > 50 mg/L for the second.

Going from `Cc1cccc2c(/C=N/NC(=O)c3cnc4c(C(F)(F)F)cccc4c3O)c[nH]c12` to `Cc1ccc(/C=N/NC(=O)c2cnc3c(C(F)(F)F)cccc3c2O)cc1`, the MIC rises from 6.25 mg/L (≈ 15.2 µM) to > 50 mg/L.

Going from `Cn1nnc2cc(/C=N\NC(=O)c3cnc4c(C(F)(F)F)cccc4c3O)ccc21` to `COc1ccc(/C=N/NC(=O)c2cnc3c(C(F)(F)F)cccc3c2O)cc1`, the MIC falls from > 50 mg/L to 12.5 mg/L (≈ 32.1 µM).

Going from `Cn1cccc1/C=N\NC(=O)c1cnc2c(C(F)(F)F)cccc2c1O` to `O=C(N/N=C/c1cc(F)ccc1O)c1cnc2c(C(F)(F)F)cccc2c1O`, the MIC rises from 6.25 mg/L (≈ 17.3 µM) to > 50 mg/L.

First: O=C(N/N=C/c1ccc(OC(F)(F)C(F)F)cc1)c1cnc2c(C(F)(F)F)cccc2c1O
Second: COc1ccc(NC(=S)NNC(=O)c2cnc3c(C(F)(F)F)cccc3c2O)cc1
The MIC of the first is lower: 25 mg/L (≈ 52.6 µM) for the first, > 50 mg/L for the second.

`O=C(NNC(=S)Nc1cccc(Cl)c1)c1cnc2c(C(F)(F)F)cccc2c1O` and `O=C(NNC(=O)c1cnc2c(C(F)(F)F)cccc2c1O)Nc1cccc(Cl)c1` are the same in MIC: 25 mg/L (≈ 56.7 µM) for the first, 25 mg/L (≈ 58.9 µM) for the second.

First: O=C(NNC(=S)Nc1ccccc1F)c1cnc2c(C(F)(F)F)cccc2c1O
Second: Cc1ccc(NC(=O)NNC(=O)c2cnc3c(C(F)(F)F)cccc3c2O)cc1
The MIC of the first is 2-fold lower: 12.5 mg/L (≈ 29.5 µM) for the first, 25 mg/L (≈ 61.8 µM) for the second.

Compared with `Cc1cc(C)cc(NC(=O)NNC(=O)c2cnc3c(C(F)(F)F)cccc3c2O)c1`, `COc1ccc(NC(=O)NNC(=O)c2cnc3c(C(F)(F)F)cccc3c2O)cc1` is lower in MIC: > 50 mg/L for the first, 12.5 mg/L (≈ 29.7 µM) for the second.

First: CCc1ccc(NC(=O)NNC(=O)c2cnc3c(C(F)(F)F)cccc3c2O)cc1
Second: NNC(=O)c1ccncc1 [ISONIAZID]
The MIC of the first is higher: > 50 mg/L for the first, 12.5 mg/L (≈ 91.1 µM) for the second.

`CO[C@H]1/C=C/O[C@@]2(C)Oc3c(C)c(O)c4c(O)c(c(/C=N/N5CCN(C)CC5)c(O)c4c3C2=O)NC(=O)/C(C)=C\C=C\[C@H](C)[C@H](O)[C@@H](C)[C@@H](O)[C@@H](C)[C@H](OC(C)=O)[C@@H]1C` [RIFAMPIN] was tested, and the MIC was 25 mg/L (≈ 30.4 µM).
